In publication PMC6409085, “Three odorant-binding proteins are involved in the behavioral response of Sogatella furcifera to rice plant volatiles” (PeerJ, 2019):
Several values for one entry are separate records, joined by “and”; a condition that tells them apart may be missing. Identical values can stand only once.

Columns and labels:
Assay in all cases: biochemical
Type in all cases: binding
SfurOBP1 = SfurOBP1 (Sogatella furcifera, UniProt V5T8N5); conditions: for Fluorescence competitive binding assay, fluorescence intensity: OBP1, three replicate columns
Method: (§1) Thirty-six rice odorants ([He et al., 2014]; [Wang et al., 2017]) and 1-N-phenyl-naphthylamine (1-NPN) were purchased from Sigma-Aldrich (St Louis, MO, USA). These odorants and 1-NPN were dissolved in high-performance liquid chromatography (HPLC) purify grade methanol for 1.0 mM as work solution.
(§2) Fluorescence competitive binding assays were performed on Tecan Spark 10M (Tecan Group Ltd., Männedorf, Switzerland) with the F96 Black ELIAS Plate (Sangon) ([Khuhro et al., 2017]; [Liu et al., 2017]). The solutions were excited at 337 nm and emission spectra were recorded between 390 and 490 nm. First, to test the binding constants of 1-NPN to the SfurOBPs, a 2.0 µM solution of protein in 50 mM Tris-HCl (pH = 7.4) was titrated with 1 mM 1-NPN to achieve virous concentrations. Next, the competitive binding of each odorant was measured using the 1-NPN as fluorescent reporter and odorant as competitor. The concentrations of protein and 1-NPN were both 2.0 µM, the odorant added after protein and 1-NPN added into the well of ELIAS Plate for 2 min. The final concentrations of each competitor were 2, 4, 6, 8, 10, 12, 14, 16, 18 and 20 µM. After 2 min of odorant added, the fluorescence intensity was measured and recorded. The volume of mixed solution in each well was maintained at 250 µL. Each interaction was performed in triplicates.
(§3) GraphPad Prism 7.0 software (GraphPad Software, Inc., La Jolla, CA, USA) was used to calculated and generated the binding constants (K1−NPN) of 1-NPN to SfurOBPs and relative Scatchard plots ([Ban et al., 2003]; [Li et al., 2016]). Dissociation constant (Ki) of each odorant to SfurOBP was computed from the corresponding IC50 value (the half maximal inhibitory concentration), using the following equation: Ki=[IC50]/(1 + [1-NPN]/K1−NPN), where [1-NPN] is the free concentration of 1-NPN and K1−NPN is the dissociation constant of the complex protein/1-NPN.

SfurOBP11 = SfurOBP11 (Sogatella furcifera, UniProt V5T6E3)
Method: as §1, §2, §3

SfurOBP2 = SfurOBP2 (Sogatella furcifera, UniProt V5T759)
Method: as §1, §2, §3

SfurOBP3 = SfurOBP3 (Sogatella furcifera, UniProt V5T818); conditions: for Fluorescence competitive binding assay, fluorescence intensity: OBP3, three replicate columns
Method: as §1, §2, §3

Chain of SfurOBP11 (V5T6E3 entry or part of it): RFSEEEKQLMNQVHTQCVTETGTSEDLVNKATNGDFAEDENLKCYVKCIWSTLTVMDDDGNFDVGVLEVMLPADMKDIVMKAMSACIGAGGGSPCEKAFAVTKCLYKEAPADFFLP
Chain of SfurOBP1 (V5T8N5 entry or part of it): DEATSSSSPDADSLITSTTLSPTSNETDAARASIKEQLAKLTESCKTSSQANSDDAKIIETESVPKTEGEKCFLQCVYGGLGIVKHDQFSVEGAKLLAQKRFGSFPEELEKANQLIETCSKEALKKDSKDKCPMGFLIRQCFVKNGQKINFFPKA
Chain of SfurOBP2 (V5T759 entry or part of it): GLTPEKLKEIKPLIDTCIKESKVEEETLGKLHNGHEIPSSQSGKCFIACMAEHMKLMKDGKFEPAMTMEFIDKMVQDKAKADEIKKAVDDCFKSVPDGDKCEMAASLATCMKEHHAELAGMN
Chain of SfurOBP3 (V5T818 entry or part of it): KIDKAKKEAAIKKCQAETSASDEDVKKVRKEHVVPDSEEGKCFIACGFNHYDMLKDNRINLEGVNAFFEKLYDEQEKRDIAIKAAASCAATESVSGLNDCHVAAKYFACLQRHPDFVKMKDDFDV

C[C@@H]1CC[C@H]2C(C)(C)[C@H]3C[C@@]12CC[C@@]3(C)O [cedrol]
IC50 (SfurOBP1): > 20 µM
Fluorescence competitive binding assay, fluorescence intensity (SfurOBP1; ligand concentration 2 (μM)): 6995 and 7876 and 8408
Fluorescence competitive binding assay, fluorescence intensity (SfurOBP1; ligand concentration 4 (μM)): 8498 and 11154 and 11504
Fluorescence competitive binding assay, fluorescence intensity (SfurOBP1; ligand concentration 6 (μM)): 10601 and 9220 and 11976
Fluorescence competitive binding assay, fluorescence intensity (SfurOBP1; ligand concentration 8 (μM)): 9019 and 11150 and 9994
Fluorescence competitive binding assay, fluorescence intensity (SfurOBP1; ligand concentration 10 (μM)): 10329 and 10734 and 11532
Fluorescence competitive binding assay, fluorescence intensity (SfurOBP1; ligand concentration 12 (μM)): 12388 and 11952 and 13123
Fluorescence competitive binding assay, fluorescence intensity (SfurOBP1; ligand concentration 14 (μM)): 12489 and 14285 and 14049
Fluorescence competitive binding assay, fluorescence intensity (SfurOBP1; ligand concentration 16 (μM)): 13812 and 12078 and 13153
Fluorescence competitive binding assay, fluorescence intensity (SfurOBP1; ligand concentration 18 (μM)): 15290 and 17034 and 15790
Fluorescence competitive binding assay, fluorescence intensity (SfurOBP1; ligand concentration 20 (μM)): 14831 and 15054 and 15511
IC50 (SfurOBP11): > 20 µM
Fluorescence intensity, fluorescence competitive binding assay, OBP11 (SfurOBP11; ligand concentration 2, replicate 1): 32664
Fluorescence intensity, fluorescence competitive binding assay, OBP11 (SfurOBP11; ligand concentration 2, replicate 2): 32061
Fluorescence intensity, fluorescence competitive binding assay, OBP11 (SfurOBP11; ligand concentration 2, replicate 3): 32191
Fluorescence intensity, fluorescence competitive binding assay, OBP11 (SfurOBP11; ligand concentration 4, replicate 1): 30812
Fluorescence intensity, fluorescence competitive binding assay, OBP11 (SfurOBP11; ligand concentration 4, replicate 2): 37566
Fluorescence intensity, fluorescence competitive binding assay, OBP11 (SfurOBP11; ligand concentration 4, replicate 3): 35078
Fluorescence intensity, fluorescence competitive binding assay, OBP11 (SfurOBP11; ligand concentration 6, replicate 1): 34551
Fluorescence intensity, fluorescence competitive binding assay, OBP11 (SfurOBP11; ligand concentration 6, replicate 2): 34452
Fluorescence intensity, fluorescence competitive binding assay, OBP11 (SfurOBP11; ligand concentration 6, replicate 3): 36785
Fluorescence intensity, fluorescence competitive binding assay, OBP11 (SfurOBP11; ligand concentration 8, replicate 1): 32906
Fluorescence intensity, fluorescence competitive binding assay, OBP11 (SfurOBP11; ligand concentration 8, replicate 2): 35488
Fluorescence intensity, fluorescence competitive binding assay, OBP11 (SfurOBP11; ligand concentration 8, replicate 3): 34811
Fluorescence intensity, fluorescence competitive binding assay, OBP11 (SfurOBP11; ligand concentration 10, replicate 1): 34631
Fluorescence intensity, fluorescence competitive binding assay, OBP11 (SfurOBP11; ligand concentration 10, replicate 2): 35572
Fluorescence intensity, fluorescence competitive binding assay, OBP11 (SfurOBP11; ligand concentration 10, replicate 3): 36351
Fluorescence intensity, fluorescence competitive binding assay, OBP11 (SfurOBP11; ligand concentration 12, replicate 1): 32777
Fluorescence intensity, fluorescence competitive binding assay, OBP11 (SfurOBP11; ligand concentration 12, replicate 2): 37222
Fluorescence intensity, fluorescence competitive binding assay, OBP11 (SfurOBP11; ligand concentration 12, replicate 3): 35927
Fluorescence intensity, fluorescence competitive binding assay, OBP11 (SfurOBP11; ligand concentration 14, replicate 1): 33134
Fluorescence intensity, fluorescence competitive binding assay, OBP11 (SfurOBP11; ligand concentration 14, replicate 2): 35392
Fluorescence intensity, fluorescence competitive binding assay, OBP11 (SfurOBP11; ligand concentration 14, replicate 3): 35226
Fluorescence intensity, fluorescence competitive binding assay, OBP11 (SfurOBP11; ligand concentration 16, replicate 1): 32933
Fluorescence intensity, fluorescence competitive binding assay, OBP11 (SfurOBP11; ligand concentration 16, replicate 2): 34203
Fluorescence intensity, fluorescence competitive binding assay, OBP11 (SfurOBP11; ligand concentration 16, replicate 3): 33568
Fluorescence intensity, fluorescence competitive binding assay, OBP11 (SfurOBP11; ligand concentration 18, replicate 1): 37284
Fluorescence intensity, fluorescence competitive binding assay, OBP11 (SfurOBP11; ligand concentration 18, replicate 2): 38034
Fluorescence intensity, fluorescence competitive binding assay, OBP11 (SfurOBP11; ligand concentration 18, replicate 3): 36646
Fluorescence intensity, fluorescence competitive binding assay, OBP11 (SfurOBP11; ligand concentration 20, replicate 1): 39273
Fluorescence intensity, fluorescence competitive binding assay, OBP11 (SfurOBP11; ligand concentration 20, replicate 2): 38740
Fluorescence intensity, fluorescence competitive binding assay, OBP11 (SfurOBP11; ligand concentration 20, replicate 3): 33015
IC50 (SfurOBP2): > 20 µM
Fluorescence competitive binding assay, OBP2 (raw fluorescence reading) (SfurOBP2; ligand concentration 2 (unit not given), replicate column 1 of 3): 24497
Fluorescence competitive binding assay, OBP2 (raw fluorescence reading) (SfurOBP2; ligand concentration 2 (unit not given), replicate column 2 of 3): 23498
Fluorescence competitive binding assay, OBP2 (raw fluorescence reading) (SfurOBP2; ligand concentration 2 (unit not given), replicate column 3 of 3): 23591
Fluorescence competitive binding assay, OBP2 (raw fluorescence reading) (SfurOBP2; ligand concentration 4 (unit not given), replicate column 1 of 3): 27085
Fluorescence competitive binding assay, OBP2 (raw fluorescence reading) (SfurOBP2; ligand concentration 4 (unit not given), replicate column 2 of 3): 27496
Fluorescence competitive binding assay, OBP2 (raw fluorescence reading) (SfurOBP2; ligand concentration 4 (unit not given), replicate column 3 of 3): 25040
Fluorescence competitive binding assay, OBP2 (raw fluorescence reading) (SfurOBP2; ligand concentration 6 (unit not given), replicate column 1 of 3): 30107
Fluorescence competitive binding assay, OBP2 (raw fluorescence reading) (SfurOBP2; ligand concentration 6 (unit not given), replicate column 2 of 3): 26969
Fluorescence competitive binding assay, OBP2 (raw fluorescence reading) (SfurOBP2; ligand concentration 6 (unit not given), replicate column 3 of 3): 25579
Fluorescence competitive binding assay, OBP2 (raw fluorescence reading) (SfurOBP2; ligand concentration 8 (unit not given), replicate column 1 of 3): 26802
Fluorescence competitive binding assay, OBP2 (raw fluorescence reading) (SfurOBP2; ligand concentration 8 (unit not given), replicate column 2 of 3): 26446
Fluorescence competitive binding assay, OBP2 (raw fluorescence reading) (SfurOBP2; ligand concentration 8 (unit not given), replicate column 3 of 3): 25979
Fluorescence competitive binding assay, OBP2 (raw fluorescence reading) (SfurOBP2; ligand concentration 10 (unit not given), replicate column 1 of 3): 26972
Fluorescence competitive binding assay, OBP2 (raw fluorescence reading) (SfurOBP2; ligand concentration 10 (unit not given), replicate column 2 of 3): 25158
Fluorescence competitive binding assay, OBP2 (raw fluorescence reading) (SfurOBP2; ligand concentration 10 (unit not given), replicate column 3 of 3): 26522
Fluorescence competitive binding assay, OBP2 (raw fluorescence reading) (SfurOBP2; ligand concentration 12 (unit not given), replicate column 1 of 3): 24638
Fluorescence competitive binding assay, OBP2 (raw fluorescence reading) (SfurOBP2; ligand concentration 12 (unit not given), replicate column 2 of 3): 24959
Fluorescence competitive binding assay, OBP2 (raw fluorescence reading) (SfurOBP2; ligand concentration 12 (unit not given), replicate column 3 of 3): 25011
Fluorescence competitive binding assay, OBP2 (raw fluorescence reading) (SfurOBP2; ligand concentration 14 (unit not given), replicate column 1 of 3): 25754
Fluorescence competitive binding assay, OBP2 (raw fluorescence reading) (SfurOBP2; ligand concentration 14 (unit not given), replicate column 2 of 3): 26325
Fluorescence competitive binding assay, OBP2 (raw fluorescence reading) (SfurOBP2; ligand concentration 14 (unit not given), replicate column 3 of 3): 24806
Fluorescence competitive binding assay, OBP2 (raw fluorescence reading) (SfurOBP2; ligand concentration 16 (unit not given), replicate column 1 of 3): 22837
Fluorescence competitive binding assay, OBP2 (raw fluorescence reading) (SfurOBP2; ligand concentration 16 (unit not given), replicate column 2 of 3): 21773
Fluorescence competitive binding assay, OBP2 (raw fluorescence reading) (SfurOBP2; ligand concentration 16 (unit not given), replicate column 3 of 3): 21108
Fluorescence competitive binding assay, OBP2 (raw fluorescence reading) (SfurOBP2; ligand concentration 18 (unit not given), replicate column 1 of 3): 27379
Fluorescence competitive binding assay, OBP2 (raw fluorescence reading) (SfurOBP2; ligand concentration 18 (unit not given), replicate column 2 of 3): 25169
Fluorescence competitive binding assay, OBP2 (raw fluorescence reading) (SfurOBP2; ligand concentration 18 (unit not given), replicate column 3 of 3): 23516
Fluorescence competitive binding assay, OBP2 (raw fluorescence reading) (SfurOBP2; ligand concentration 20 (unit not given), replicate column 1 of 3): 25091
Fluorescence competitive binding assay, OBP2 (raw fluorescence reading) (SfurOBP2; ligand concentration 20 (unit not given), replicate column 2 of 3): 24420
Fluorescence competitive binding assay, OBP2 (raw fluorescence reading) (SfurOBP2; ligand concentration 20 (unit not given), replicate column 3 of 3): 23245
IC50 (SfurOBP3): > 20 µM
Fluorescence competitive binding assay, fluorescence intensity (SfurOBP3; ligand concentration 2): 55754 and 49842 and 56462
Fluorescence competitive binding assay, fluorescence intensity (SfurOBP3; ligand concentration 4): 68851 and 68657 and 83563
Fluorescence competitive binding assay, fluorescence intensity (SfurOBP3; ligand concentration 6): 77285 and 86181 and 100023
Fluorescence competitive binding assay, fluorescence intensity (SfurOBP3; ligand concentration 8): 86444 and 86480 and 86528
Fluorescence competitive binding assay, fluorescence intensity (SfurOBP3; ligand concentration 10): 98647 and 101699 and 124352
Fluorescence competitive binding assay, fluorescence intensity (SfurOBP3; ligand concentration 12): 107439 and 105795 and 90567
Fluorescence competitive binding assay, fluorescence intensity (SfurOBP3; ligand concentration 14): 124768 and 101594 and 116276
Fluorescence competitive binding assay, fluorescence intensity (SfurOBP3; ligand concentration 16): 81951 and 95706 and 104699
Fluorescence competitive binding assay, fluorescence intensity (SfurOBP3; ligand concentration 18): 130597 and 114825 and 98253
Fluorescence competitive binding assay, fluorescence intensity (SfurOBP3; ligand concentration 20): 111183 and 106493 and 98789
